In ChEMBL document CHEMBL1139263, “New lycorine-type alkaloid from Lycoris traubii and evaluation of antitrypanosomal and antimalarial activities of lycorine derivatives” (Bioorg Med Chem, 2008):
Converted amounts (≈) assume the structure as drawn.

How the values were obtained:
MRC5 = assay: Cytotoxicity against human MRC5 cells after 7 days by MTT assay; format: cell-based; conditions: MRC5, 168 h
Plasmodium falciparum [1] = assay: Antimalarial activity against drug-resistant Plasmodium falciparum K1 infected human erythrocytes after 72 hrs; format: functional, organism-based; conditions: K1, 72 h
Plasmodium falciparum [2] = assay: Antimalarial activity against drug-sensitive Plasmodium falciparum FCR3 infected human erythrocytes after 72 hrs; format: functional, organism-based; conditions: FCR3, 72 h
[3] = test system: Trypanosoma brucei brucei; assay: Antitrypanosomal activity against Trypanosoma brucei brucei GUTat3.1 after 72 hrs by alamar blue assay; format: functional, organism-based; conditions: GUTat3.1, 72 h
[4] = Selectivity index ratio IC50 for human MRC5 cells to IC50 for Trypanosoma brucei brucei GUTat3.1; format: functional
[5] = Selectivity index ratio IC50 for human MRC5 cells to IC50 for Plasmodium falciparum FCR3; format: functional
[6] = Selectivity index ratio IC50 for human MRC5 cells to IC50 for Plasmodium falciparum K1; format: functional
[7] = test system: Trypanosoma brucei rhodesiense; assay: Antitrypanosomal activity against Trypanosoma brucei rhodesiense STIB900 trypomastigotes; format: functional, organism-based
Plasmodium falciparum [8] = assay: Antimalarial activity against Plasmodium falciparum FAC8; format: functional, organism-based
Plasmodium falciparum [9] = assay: Antimalarial activity against Plasmodium falciparum D10; format: functional, organism-based

## CC(=O)O[C@H]1[C@H]2c3cc4c(cc3CN3CCC(=C[C@@H]1O)[C@H]23)OCO4
MRC5
  IC50: 1.29 µg/mL (≈ 3.92 µM)
Plasmodium falciparum [1]
  IC50: 0.36 µg/mL (≈ 1.09 µM)
Plasmodium falciparum [2]
  IC50: 0.3 µg/mL (≈ 0.911 µM)
[3]
  IC50: 5.22 µg/mL (≈ 15.8 µM)
[4]
  Ratio IC50: 0.2
[5]
  Ratio IC50: 4.3
[6]
  Ratio IC50: 3.6

## Cc1ccc(C(=O)Nc2ccc(S(=O)(=O)O)c3cc(S(=O)(=O)O)cc(S(=O)(=O)O)c23)cc1NC(=O)c1cccc(NC(=O)Nc2cccc(C(=O)Nc3cc(C(=O)Nc4ccc(S(=O)(=O)O)c5cc(S(=O)(=O)O)cc(S(=O)(=O)O)c45)ccc3C)c2)c1 [SURAMIN]
MRC5
  IC50: > 100 µg/mL
[3]
  IC50: 1.58 µg/mL (≈ 1.22 µM)
[4]
  Ratio IC50: >63

## CCC(=O)O[C@H]1[C@H]2c3cc4c(cc3CN3CCC(=C[C@@H]1OC(=O)CC)[C@H]23)OCO4
MRC5
  IC50: > 23.8 µg/mL
Plasmodium falciparum [1]
  IC50: 4.2 µg/mL (≈ 10.5 µM)
[6]
  Ratio IC50: >23.8

## CCC(=O)O[C@H]1[C@H]2c3cc4c(cc3CN3CCC(=C[C@@H]1O)[C@H]23)OCO4
MRC5
  IC50: 4.99 µg/mL (≈ 14.5 µM)
Plasmodium falciparum [1]
  IC50: 0.37 µg/mL (≈ 1.08 µM)
Plasmodium falciparum [2]
  IC50: 0.3 µg/mL (≈ 0.874 µM)
[3]
  IC50: 1.34 µg/mL (≈ 3.9 µM)
[4]
  Ratio IC50: 3.7
[5]
  Ratio IC50: 16.6
[6]
  Ratio IC50: 13.5

## CC(=O)O[C@H]1C=C2CCN3Cc4cc5c(cc4[C@H]([C@@H]1O)[C@@H]23)OCO5
MRC5
  IC50: 6.11 µg/mL (≈ 18.6 µM)
Plasmodium falciparum [1]
  IC50: 8.21 µg/mL (≈ 24.9 µM)
[3]
  IC50: 0.15 µg/mL (≈ 0.455 µM)
[4]
  Ratio IC50: 40.7
[6]
  Ratio IC50: 0.7

## N=C(N)c1ccc(OCCCCCOc2ccc(C(=N)N)cc2)cc1 [PENTAMIDINE]
MRC5
  IC50: 5.71 µg/mL (≈ 16.8 µM)
[3]
  IC50: 0.00158 µg/mL (≈ 0.00464 µM)
[4]
  Ratio IC50: 3614

## C[C@@H]1CC[C@H]2[C@@H](C)C(=O)O[C@@H]3O[C@@]4(C)CC[C@@H]1[C@]32OO4 [ARTEMISININ]
Plasmodium falciparum [1]
  IC50: 0.0057 µg/mL (≈ 0.0202 µM)
Plasmodium falciparum [2]
  IC50: 0.006 µg/mL (≈ 0.0213 µM)
[5]
  Ratio IC50: 7528.3
[6]
  Ratio IC50: 7924.5

## NCCCC(N)(C(=O)O)C(F)F (stereo not drawn) [EFLORNITHINE]
MRC5
  IC50: > 100 µg/mL
[3]
  IC50: 2.27 µg/mL (≈ 12.5 µM)
[4]
  Ratio IC50: >44

## CCCC(=O)O[C@H]1[C@H]2c3cc4c(cc3CN3CCC(=C[C@@H]1O)[C@H]23)OCO4
MRC5
  IC50: 3.6 µg/mL (≈ 10.1 µM)
Plasmodium falciparum [1]
  IC50: 0.41 µg/mL (≈ 1.15 µM)
Plasmodium falciparum [2]
  IC50: 0.32 µg/mL (≈ 0.895 µM)
[3]
  IC50: 1.38 µg/mL (≈ 3.86 µM)
[4]
  Ratio IC50: 2.6
[5]
  Ratio IC50: 11.3
[6]
  Ratio IC50: 8.8

## C[C@@H](O)CC(=O)O[C@@H]1[C@H]2c3cc4c(cc3CN3CCC(=C[C@@H]1O)[C@H]23)OCO4
MRC5
  IC50: 6.35 µg/mL (≈ 17 µM)
Plasmodium falciparum [1]
  IC50: 0.62 µg/mL (≈ 1.66 µM)
Plasmodium falciparum [2]
  IC50: 0.49 µg/mL (≈ 1.31 µM)
[3]
  IC50: 2.45 µg/mL (≈ 6.56 µM)
[4]
  Ratio IC50: 2.6
[5]
  Ratio IC50: 13
[6]
  Ratio IC50: 10.2

## CC(=O)O[C@H]1[C@H]2c3cc4c(cc3CN3CCC(=C[C@@H]1OC(C)=O)[C@H]23)OCO4
MRC5
  IC50: 18.1 µg/mL (≈ 48.8 µM)
[7]
  IC50: 1 µg/mL (≈ 2.69 µM)
Plasmodium falciparum [1]
  IC50: 7.6 µg/mL (≈ 20.5 µM)
[3]
  IC50: > 12.5 µg/mL
[4]
  Ratio IC50: <1.4
Plasmodium falciparum [8]
  IC50: 1 µg/mL (≈ 2.69 µM)
[6]
  Ratio IC50: 2.4
Plasmodium falciparum [9]
  IC50: 1 µg/mL (≈ 2.69 µM)

## C[C@H](O)CC(=O)O[C@H]1[C@H]2c3cc4c(cc3CN3CCC(=C[C@@H]1O)[C@H]23)OCO4
MRC5
  IC50: 8.11 µg/mL (≈ 21.7 µM)
Plasmodium falciparum [1]
  IC50: 0.6 µg/mL (≈ 1.61 µM)
Plasmodium falciparum [2]
  IC50: 0.45 µg/mL (≈ 1.21 µM)
[3]
  IC50: 1.9 µg/mL (≈ 5.09 µM)
[4]
  Ratio IC50: 4.3
[5]
  Ratio IC50: 18
[6]
  Ratio IC50: 13.5

## CCCC(=O)O[C@H]1[C@H]2c3cc4c(cc3CN3CCC(=C[C@@H]1OC(=O)CCC)[C@H]23)OCO4
Plasmodium falciparum [1]
  IC50: 0.67 µg/mL (≈ 1.57 µM)
Plasmodium falciparum [2]
  IC50: 0.53 µg/mL (≈ 1.24 µM)
[5]
  Ratio IC50: 27.5
[6]
  Ratio IC50: 21.7
